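Following 48 hours of exposure in 96-well plates, responses at five concentrations were used to interpolate endpoints linearly. TGI marks complete inhibition of growth.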
What was measured:
Assay in all cases: NCI tumour cell line growth inhibition, 48 h
SK-MEL-28 melanoma = tested on: SK-MEL-28 melanoma
NCI-H226 lung = tested on: NCI-H226 lung
T-47D breast = tested on: T-47D breast
SF-539 CNS = tested on: SF-539 CNS
SF-295 CNS = tested on: SF-295 CNS
NCI-H522 lung = tested on: NCI-H522 lung
KM12 colon = tested on: KM12 colon
LXFL 529 NSCLC = tested on: LXFL 529 NSCLC
HOP-62 NSCLC = tested on: HOP-62 NSCLC
HOP-18 NSCLC = tested on: HOP-18 NSCLC

| Compound | TGI (SK-MEL-28 melanoma) | TGI (NCI-H226 lung) | TGI (T-47D breast) | TGI (SF-539 CNS) | TGI (SF-295 CNS) | TGI (NCI-H522 lung) | TGI (KM12 colon) | TGI (LXFL 529 NSCLC) | TGI (HOP-62 NSCLC) | TGI (HOP-18 NSCLC) |
| --- | --- | --- | --- | --- | --- | --- | --- | --- | --- | --- |
| NCCSSCCN | > 100 µM | > 100 µM | > 100 µM | > 100 µM | > 100 µM | > 100 µM | > 100 µM | > 100 µM | > 100 µM | > 100 µM |
| CN(C)CCNc1ccc(CO)c2sc3ccc(O)cc3c(=O)c12 | 19.1 µM | 8.48 µM | 7.68 µM | 6.9 µM | 12.1 µM | 3.49 µM | 7.3 µM | 19 µM | 4.23 µM | 29.6 µM |
| N#Cc1ccccc1C(Cl)(Cl)c1cnccn1 | > 100 µM | > 100 µM |  | > 100 µM | > 100 µM | 38.4 µM | > 100 µM | > 100 µM | > 100 µM | > 100 µM |
| C=CCNc1nc2c(s1)C(=O)c1ccccc1C2=O | 32.8 µM | 40.1 µM | 68.3 µM | 16.7 µM | 28.2 µM | 21.4 µM | 28.1 µM | 24.2 µM | 26.7 µM | 23.1 µM |
| Cc1ccc(NC(=O)CCc2nc(N)nc(N)c2-c2ccccc2)cc1C | > 100 µM | > 100 µM |  | > 100 µM | > 100 µM | > 100 µM | > 100 µM | > 100 µM | > 100 µM | > 100 µM |
| O=c1/c(=C/c2ccccc2[N+](=O)[O-])sc2nc3ccccc3n12 | > 46.4 µM | > 46.4 µM |  | 37.9 µM | 41.4 µM | > 100 µM | > 46.4 µM | > 46.4 µM | > 46.4 µM | > 46.4 µM |
| COc1ccc(OC)c(NC(=O)CCC/C(CC(=O)c2ccc(O)c(OC)c2)=N\Nc2nnc(C)n2N)c1 | > 100 µM | > 100 µM |  | > 100 µM | > 100 µM | > 100 µM | > 100 µM | > 100 µM | > 100 µM | > 100 µM |
| COc1ccc(NC(=O)/C(=C/c2ccccc2)C(C)=O)cc1 | 26.1 µM | 96.9 µM |  | 28.7 µM | 28.6 µM | 4.6 µM | 27.5 µM | 24.9 µM | 32.3 µM | 28.2 µM |
| CCNC(=O)COc1ccc(Br)cc1Br | > 100 µM | > 100 µM |  | > 100 µM | > 100 µM | > 100 µM | > 100 µM | > 100 µM | > 100 µM | > 100 µM |
| CC(Oc1ccc2c(-c3ccccc3)cc(=O)oc2c1)C(=O)O (stereo not drawn) | > 100 µM | > 100 µM |  | > 100 µM | > 100 µM | > 100 µM | > 100 µM | > 100 µM | > 100 µM | > 100 µM |
